Assay results taken from US20190038624A1 (priority 2017, published 2019).
Where two headings read alike, the source gives them in different places.

Test system: patients with probable MSA
Type: in vivo, human
Conditions: average of five patients, oral 200 mg daily
Experimental: Five patients fulfilled the consensus criteria for “probable MSA” and received oral Nilotinib 200 mg daily for 24 weeks. Disease progression was monitored every 4 weeks by measuring the patient's motor and non-motor symptoms with the Unified Multiple System Atrophy Rating Scale (UMSARS). Mini Mental State Examination (MMSE) was used to screen for cognitive impairment. […] However, these AEs resolved with continued administration of the drug. […] Furthermore, there was a significant decline of 6.8 and 2.2 points in the UMSARS and UMSARS-II, respectively, compared to baseline (see FIG. 2). MMSE results were normal throughout treatment.

## Cc1cn(-c2cc(NC(=O)c3ccc(C)c(Nc4nccc(-c5cccnc5)n4)c3)cc(C(F)(F)F)c2)cn1 [Nilotinib]
Week 4
  UMSARS, Average: 52.6 points
  UMSARS-II, Average: 22.2 points
Week 8
  UMSARS, Average: 52.4 points
  UMSARS-II, Average: 22.2 points
Week 12
  UMSARS, Average: 50.8 points
  UMSARS-II, Average: 22 points
Week 16
  UMSARS, Average: 49.4 points
  UMSARS-II, Average: 21.6 points
Week 20
  UMSARS, Average: 47.8 points
  UMSARS-II, Average: 21.2 points
Week 24
  UMSARS, Average: 46.6 points
  UMSARS-II, Average: 20.6 points
